From the kinase profiling compilation of Christmann-Franck et al. (2016)
“And” between values parts separate entries of the source, which are not always exact repeats. Equal entries are not always repeated.

Legend:
Assay in all cases: radiometric filter-binding kinase assay
[1] = test system: AKT2 (human), P31751 [S474D]
AURKA (human) = AURKA (human) (UniProt O14965)
BRSK1 (human) = BRSK1 (human) (UniProt Q8TDC3)
CSK (human) = CSK (human) (UniProt P41240)
EPHA4 (human) = EPHA4 (human) (UniProt P54764)
EPHB2 (human) = EPHB2 (human) (UniProt P29323)
ERBB4 (human) = ERBB4 (human) (UniProt Q15303)
FGFR1 (human) = FGFR1 (human) (UniProt P11362)
FLT1 (human) = FLT1 (human) (UniProt P17948)
GCK (human) = GCK (human) (UniProt Q12851)
HIPK2 (human) = HIPK2 (human) (UniProt Q9H2X6)
IGF1R (human) = IGF1R (human) (UniProt P08069)
IKBKE (human) = IKBKE (human) (UniProt Q14164)
JAK2 JH1 JH2 (human) = JAK2 JH1 JH2 (human) (UniProt O60674)
MAP3K9 (human) = MAP3K9 (human) (UniProt P80192)
MAPK11 (human) = MAPK11 (human) (UniProt Q15759)
MAPK12 (human) = MAPK12 (human) (UniProt P53778)
MAPK13 (human) = MAPK13 (human) (UniProt O15264)
MAPK14 (human) = MAPK14 (human) (UniProt Q16539)
MAPK3 (human) = MAPK3 (human) (UniProt P27361)
MAPKAPK2 (human) = MAPKAPK2 (human) (UniProt P49137)
MAPKAPK5 (human) = MAPKAPK5 (human) (UniProt Q8IW41)
MARK2 (human) = MARK2 (human) (UniProt Q7KZI7)
MARK4 (human) = MARK4 (human) (UniProt Q96L34)
MINK1 (human) = MINK1 (human) (UniProt Q8N4C8)
MKNK2 (human) = MKNK2 (human) (UniProt Q9HBH9)
NTRK1 (human) = NTRK1 (human) (UniProt P04629)
[2] = test system: PAK2 (human), Q13177 [T402E]
PAK4 (human) = PAK4 (human) (UniProt O96013)
PDPK1 (human) = PDPK1 (human) (UniProt O15530); conditions: compound 1.0 µM
SRC (human) = SRC (human) (UniProt P12931)
SRPK1 (human) = SRPK1 (human) (UniProt Q96SB4)
SYK (human) = SYK (human) (UniProt P43405)
TBK1 (human) = TBK1 (human) (UniProt Q9UHD2)

Chain of AURKA (human) (O14965 whole entry, looked up): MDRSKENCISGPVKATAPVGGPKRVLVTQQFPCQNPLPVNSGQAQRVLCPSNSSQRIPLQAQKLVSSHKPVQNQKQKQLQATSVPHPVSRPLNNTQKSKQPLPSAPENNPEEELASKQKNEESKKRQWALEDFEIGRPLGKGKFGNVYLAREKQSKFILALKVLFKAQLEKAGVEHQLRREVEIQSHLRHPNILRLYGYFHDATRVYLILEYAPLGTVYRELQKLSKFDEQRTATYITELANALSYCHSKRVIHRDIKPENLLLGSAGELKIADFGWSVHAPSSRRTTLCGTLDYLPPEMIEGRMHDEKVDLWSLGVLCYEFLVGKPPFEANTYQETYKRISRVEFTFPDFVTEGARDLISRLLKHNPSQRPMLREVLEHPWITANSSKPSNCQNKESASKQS
Chain of MKNK2 (human) (Q9HBH9 whole entry, looked up): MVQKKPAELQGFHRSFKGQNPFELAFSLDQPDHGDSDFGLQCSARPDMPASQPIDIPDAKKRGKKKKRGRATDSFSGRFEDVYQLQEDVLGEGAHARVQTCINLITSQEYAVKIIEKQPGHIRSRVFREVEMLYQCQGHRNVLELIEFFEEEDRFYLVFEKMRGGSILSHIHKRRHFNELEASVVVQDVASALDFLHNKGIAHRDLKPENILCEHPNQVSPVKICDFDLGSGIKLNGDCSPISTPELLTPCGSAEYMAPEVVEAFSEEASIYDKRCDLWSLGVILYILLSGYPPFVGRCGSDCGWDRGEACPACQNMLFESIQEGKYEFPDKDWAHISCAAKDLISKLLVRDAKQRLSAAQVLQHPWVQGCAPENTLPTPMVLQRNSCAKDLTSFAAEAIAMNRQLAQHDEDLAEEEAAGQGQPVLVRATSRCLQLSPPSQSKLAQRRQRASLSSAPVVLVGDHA
Chain of IKBKE (human) (Q14164 whole entry, looked up): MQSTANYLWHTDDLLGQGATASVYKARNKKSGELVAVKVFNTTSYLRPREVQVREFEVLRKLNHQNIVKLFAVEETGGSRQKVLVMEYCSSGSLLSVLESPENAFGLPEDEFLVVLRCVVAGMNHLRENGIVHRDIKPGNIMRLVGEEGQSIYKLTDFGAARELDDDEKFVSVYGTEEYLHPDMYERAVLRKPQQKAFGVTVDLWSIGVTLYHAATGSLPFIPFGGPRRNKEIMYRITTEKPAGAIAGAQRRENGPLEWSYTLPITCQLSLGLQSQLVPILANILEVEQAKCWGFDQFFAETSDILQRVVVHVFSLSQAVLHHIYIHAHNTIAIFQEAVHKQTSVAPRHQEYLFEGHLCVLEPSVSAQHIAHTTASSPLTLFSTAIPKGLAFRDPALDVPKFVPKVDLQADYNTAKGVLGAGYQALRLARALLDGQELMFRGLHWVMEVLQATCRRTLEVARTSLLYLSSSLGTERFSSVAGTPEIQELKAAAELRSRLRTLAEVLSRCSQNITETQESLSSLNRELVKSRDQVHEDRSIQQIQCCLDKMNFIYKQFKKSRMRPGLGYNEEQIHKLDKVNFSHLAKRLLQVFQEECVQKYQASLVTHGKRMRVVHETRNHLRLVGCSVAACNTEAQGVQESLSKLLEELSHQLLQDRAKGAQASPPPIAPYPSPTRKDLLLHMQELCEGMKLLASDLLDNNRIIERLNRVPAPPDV
Chain of FLT1 (human) (P17948 whole entry, looked up): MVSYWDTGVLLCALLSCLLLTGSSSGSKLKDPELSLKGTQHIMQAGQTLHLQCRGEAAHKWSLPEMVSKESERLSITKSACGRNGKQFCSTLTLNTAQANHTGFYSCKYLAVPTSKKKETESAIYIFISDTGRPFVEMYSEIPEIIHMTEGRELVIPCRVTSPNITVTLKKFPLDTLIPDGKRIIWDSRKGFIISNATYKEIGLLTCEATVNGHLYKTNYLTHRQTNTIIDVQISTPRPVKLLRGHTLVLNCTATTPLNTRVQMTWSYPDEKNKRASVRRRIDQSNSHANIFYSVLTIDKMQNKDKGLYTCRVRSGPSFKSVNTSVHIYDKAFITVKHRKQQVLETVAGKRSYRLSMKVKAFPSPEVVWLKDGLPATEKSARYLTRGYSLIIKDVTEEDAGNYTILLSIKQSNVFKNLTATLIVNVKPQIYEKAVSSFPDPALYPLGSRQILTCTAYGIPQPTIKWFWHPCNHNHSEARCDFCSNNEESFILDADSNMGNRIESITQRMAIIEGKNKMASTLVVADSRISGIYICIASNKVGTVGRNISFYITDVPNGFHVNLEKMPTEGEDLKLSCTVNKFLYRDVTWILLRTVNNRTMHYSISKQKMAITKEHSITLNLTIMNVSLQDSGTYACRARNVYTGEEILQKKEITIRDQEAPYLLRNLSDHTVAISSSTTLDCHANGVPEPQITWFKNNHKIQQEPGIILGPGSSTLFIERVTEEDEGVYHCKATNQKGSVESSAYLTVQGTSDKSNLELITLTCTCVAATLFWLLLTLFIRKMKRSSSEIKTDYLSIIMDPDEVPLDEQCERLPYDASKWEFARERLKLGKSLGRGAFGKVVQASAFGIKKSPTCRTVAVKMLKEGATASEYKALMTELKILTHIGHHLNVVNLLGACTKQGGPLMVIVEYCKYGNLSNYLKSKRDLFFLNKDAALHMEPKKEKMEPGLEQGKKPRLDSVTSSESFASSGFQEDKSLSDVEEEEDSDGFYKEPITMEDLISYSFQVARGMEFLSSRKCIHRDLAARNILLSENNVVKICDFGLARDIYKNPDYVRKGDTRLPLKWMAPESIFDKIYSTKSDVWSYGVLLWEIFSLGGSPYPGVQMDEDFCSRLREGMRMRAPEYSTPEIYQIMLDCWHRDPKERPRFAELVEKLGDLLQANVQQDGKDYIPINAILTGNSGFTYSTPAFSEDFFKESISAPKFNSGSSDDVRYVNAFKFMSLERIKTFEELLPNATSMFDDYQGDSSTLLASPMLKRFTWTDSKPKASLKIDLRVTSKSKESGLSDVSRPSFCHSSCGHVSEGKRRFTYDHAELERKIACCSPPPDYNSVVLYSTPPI
Chain of MAPK14 (human) (Q16539 whole entry, looked up): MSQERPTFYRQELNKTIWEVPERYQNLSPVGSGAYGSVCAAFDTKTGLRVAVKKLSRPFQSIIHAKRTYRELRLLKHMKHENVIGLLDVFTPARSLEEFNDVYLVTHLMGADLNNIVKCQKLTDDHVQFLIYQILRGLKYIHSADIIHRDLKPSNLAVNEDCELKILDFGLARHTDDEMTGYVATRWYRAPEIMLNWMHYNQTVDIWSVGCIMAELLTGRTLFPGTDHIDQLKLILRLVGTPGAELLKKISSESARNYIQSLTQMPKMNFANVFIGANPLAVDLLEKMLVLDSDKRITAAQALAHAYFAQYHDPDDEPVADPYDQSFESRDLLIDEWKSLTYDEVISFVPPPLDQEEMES
Chain of MAPKAPK5 (human) (Q8IW41 whole entry, looked up): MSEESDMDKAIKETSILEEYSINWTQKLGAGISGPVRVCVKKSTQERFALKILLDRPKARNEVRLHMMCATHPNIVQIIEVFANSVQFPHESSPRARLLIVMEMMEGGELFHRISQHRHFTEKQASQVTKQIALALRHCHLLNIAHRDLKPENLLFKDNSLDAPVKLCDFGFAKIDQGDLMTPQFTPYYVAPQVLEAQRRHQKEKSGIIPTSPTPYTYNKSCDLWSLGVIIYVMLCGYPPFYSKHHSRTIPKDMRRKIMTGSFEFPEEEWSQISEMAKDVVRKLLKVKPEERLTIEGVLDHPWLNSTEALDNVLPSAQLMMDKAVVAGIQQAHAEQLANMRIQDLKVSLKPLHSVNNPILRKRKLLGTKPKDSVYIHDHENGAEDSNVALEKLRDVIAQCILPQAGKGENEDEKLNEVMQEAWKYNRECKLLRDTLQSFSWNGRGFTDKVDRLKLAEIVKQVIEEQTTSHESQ
Chain of EPHA4 (human) (P54764 whole entry, looked up): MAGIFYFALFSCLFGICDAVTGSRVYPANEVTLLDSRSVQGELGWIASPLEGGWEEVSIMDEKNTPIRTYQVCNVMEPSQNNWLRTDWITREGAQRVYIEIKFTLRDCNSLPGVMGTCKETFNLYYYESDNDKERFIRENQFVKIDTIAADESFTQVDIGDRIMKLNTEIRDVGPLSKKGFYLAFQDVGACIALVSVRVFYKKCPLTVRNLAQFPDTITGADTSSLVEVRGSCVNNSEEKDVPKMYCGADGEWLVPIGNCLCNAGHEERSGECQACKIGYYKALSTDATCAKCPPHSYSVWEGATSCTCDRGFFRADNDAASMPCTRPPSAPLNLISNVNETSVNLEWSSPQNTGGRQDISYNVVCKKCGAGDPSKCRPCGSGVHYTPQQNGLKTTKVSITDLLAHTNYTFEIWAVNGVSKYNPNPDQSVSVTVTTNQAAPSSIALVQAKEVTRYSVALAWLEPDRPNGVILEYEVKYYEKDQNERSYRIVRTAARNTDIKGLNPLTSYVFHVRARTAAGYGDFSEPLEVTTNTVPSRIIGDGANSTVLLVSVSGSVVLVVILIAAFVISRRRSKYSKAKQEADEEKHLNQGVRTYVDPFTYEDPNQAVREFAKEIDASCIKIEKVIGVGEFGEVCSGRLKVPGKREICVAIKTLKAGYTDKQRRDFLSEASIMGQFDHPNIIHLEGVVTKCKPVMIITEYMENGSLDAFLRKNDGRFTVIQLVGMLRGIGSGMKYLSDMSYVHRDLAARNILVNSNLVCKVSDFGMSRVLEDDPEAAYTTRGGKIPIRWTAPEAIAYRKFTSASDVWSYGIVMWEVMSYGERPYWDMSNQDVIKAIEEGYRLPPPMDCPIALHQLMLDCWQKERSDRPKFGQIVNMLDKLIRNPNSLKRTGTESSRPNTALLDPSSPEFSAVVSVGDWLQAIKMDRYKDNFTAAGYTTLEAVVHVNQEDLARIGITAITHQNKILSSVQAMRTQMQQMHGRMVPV

Question: Which residual activity ([1]; compound 1.0 µM) does the source give for `COc1cc(C(=O)N2CCC(N3CCN(C)CC3)CC2)ccc1Nc1ncc2c(n1)N(C)c1ccccc1C(=O)N2C` here?
Answer: 93%

Question: And the residual activity ([1]; compound 10.0 µM)?
Answer: 79%

Question: And the IC50 (AURKA (human))?
Answer: 1.2 µM

Question: What about the residual activity (AURKA (human); compound 1.0 µM) of the same molecule?
Answer: 33%

Question: What about the residual activity (AURKA (human); compound 10.0 µM) of the same molecule?
Answer: 5%

Question: What about the residual activity (BRSK1 (human); compound 1.0 µM) of the same molecule?
Answer: 83%

Question: What about the residual activity (BRSK1 (human); compound 10.0 µM) of the same molecule?
Answer: 78%

Question: And the residual activity (CSK (human); compound 1.0 µM)?
Answer: 70%

Question: And the residual activity (CSK (human); compound 10.0 µM)?
Answer: 80%

Question: What about the residual activity (EPHA4 (human); compound 1.0 µM) of the same molecule?
Answer: 88%

Question: And the residual activity (EPHA4 (human); compound 10.0 µM)?
Answer: 94%

Question: And the residual activity (EPHB2 (human); compound 1.0 µM)?
Answer: 96%

Question: And the residual activity (EPHB2 (human); compound 10.0 µM)?
Answer: 93%

Question: What about the residual activity (ERBB4 (human); compound 1.0 µM) of the same molecule?
Answer: 68%

Question: And the residual activity (ERBB4 (human); compound 10.0 µM)?
Answer: 72%

Question: What about the residual activity (FGFR1 (human); compound 1.0 µM) of the same molecule?
Answer: 83%

Question: What about the residual activity (FGFR1 (human); compound 10.0 µM) of the same molecule?
Answer: 60%

Question: And the residual activity (FLT1 (human); compound 1.0 µM)?
Answer: 64%

Question: What about the residual activity (FLT1 (human); compound 10.0 µM) of the same molecule?
Answer: 61%

Question: What about the residual activity (GCK (human); compound 1.0 µM) of the same molecule?
Answer: 93%

Question: What about the residual activity (GCK (human); compound 10.0 µM) of the same molecule?
Answer: 99%

Question: What about the residual activity (HIPK2 (human); compound 1.0 µM) of the same molecule?
Answer: 76%

Question: And the residual activity (HIPK2 (human); compound 10.0 µM)?
Answer: 86%

Question: And the residual activity (IGF1R (human); compound 1.0 µM)?
Answer: 107%

Question: And the residual activity (IGF1R (human); compound 10.0 µM)?
Answer: 90%

Question: What about the residual activity (IKBKE (human); compound 1.0 µM) of the same molecule?
Answer: 76%

Question: What about the residual activity (IKBKE (human); compound 10.0 µM) of the same molecule?
Answer: 88%

Question: And the residual activity (JAK2 JH1 JH2 (human); compound 1.0 µM)?
Answer: 74%

Question: What about the residual activity (JAK2 JH1 JH2 (human); compound 10.0 µM) of the same molecule?
Answer: 80%

Question: What about the residual activity (MAP3K9 (human); compound 1.0 µM) of the same molecule?
Answer: 87%

Question: What about the residual activity (MAP3K9 (human); compound 10.0 µM) of the same molecule?
Answer: 96%

Question: What about the residual activity (MAPK11 (human); compound 1.0 µM) of the same molecule?
Answer: 73%

Question: And the residual activity (MAPK11 (human); compound 10.0 µM)?
Answer: 45%

Question: What about the residual activity (MAPK12 (human); compound 1.0 µM) of the same molecule?
Answer: 90%

Question: What about the residual activity (MAPK12 (human); compound 10.0 µM) of the same molecule?
Answer: 106%

Question: And the residual activity (MAPK13 (human); compound 1.0 µM)?
Answer: 102%

Question: What about the residual activity (MAPK13 (human); compound 10.0 µM) of the same molecule?
Answer: 106%

Question: What about the residual activity (MAPK14 (human); compound 1.0 µM) of the same molecule?
Answer: 95%

Question: And the residual activity (MAPK14 (human); compound 10.0 µM)?
Answer: 96%

Question: And the residual activity (MAPK3 (human); compound 1.0 µM)?
Answer: 105%

Question: And the residual activity (MAPK3 (human); compound 10.0 µM)?
Answer: 104%

Question: What about the residual activity (MAPKAPK2 (human); compound 1.0 µM) of the same molecule?
Answer: 86%

Question: What about the residual activity (MAPKAPK2 (human); compound 10.0 µM) of the same molecule?
Answer: 84%

Question: What about the residual activity (MAPKAPK5 (human); compound 1.0 µM) of the same molecule?
Answer: 102%

Question: What about the residual activity (MAPKAPK5 (human); compound 10.0 µM) of the same molecule?
Answer: 107%

Question: And the residual activity (MARK2 (human); compound 1.0 µM)?
Answer: 62%

Question: And the residual activity (MARK2 (human); compound 10.0 µM)?
Answer: 72%

Question: And the residual activity (MARK4 (human); compound 1.0 µM)?
Answer: 94%

Question: What about the residual activity (MARK4 (human); compound 10.0 µM) of the same molecule?
Answer: 87%

Question: And the residual activity (MINK1 (human); compound 1.0 µM)?
Answer: 99%

Question: And the residual activity (MINK1 (human); compound 10.0 µM)?
Answer: 108%

Question: What about the IC50 (MKNK2 (human)) of the same molecule?
Answer: 7.2 µM

Question: What about the residual activity (MKNK2 (human); compound 1.0 µM) of the same molecule?
Answer: 72%

Question: What about the residual activity (MKNK2 (human); compound 10.0 µM) of the same molecule?
Answer: 22%

Question: What about the residual activity (NTRK1 (human); compound 1.0 µM) of the same molecule?
Answer: 79%

Question: What about the residual activity (NTRK1 (human); compound 10.0 µM) of the same molecule?
Answer: 32%

Question: And the residual activity ([2]; compound 1.0 µM)?
Answer: 97%

Question: What about the residual activity ([2]; compound 10.0 µM) of the same molecule?
Answer: 110%

Question: And the residual activity (PAK4 (human); compound 1.0 µM)?
Answer: 94%

Question: And the residual activity (PAK4 (human); compound 10.0 µM)?
Answer: 108%

Question: And the residual activity (PDPK1 (human))?
Answer: 68% and 74%

Question: And the residual activity (SRC (human); compound 1.0 µM)?
Answer: 99%

Question: And the residual activity (SRC (human); compound 10.0 µM)?
Answer: 99%

Question: What about the residual activity (SRPK1 (human); compound 1.0 µM) of the same molecule?
Answer: 98%

Question: And the residual activity (SRPK1 (human); compound 10.0 µM)?
Answer: 110%

Question: And the residual activity (SYK (human); compound 1.0 µM)?
Answer: 71%

Question: And the residual activity (SYK (human); compound 10.0 µM)?
Answer: 63%

Question: What about the residual activity (TBK1 (human); compound 1.0 µM) of the same molecule?
Answer: 94%

Question: And the residual activity (TBK1 (human); compound 10.0 µM)?
Answer: 104%
